Measured values from patent US20170307631A1, “METHODS, SYSTEMS AND PRODUCTS FOR PREDICTING RESPONSE OF TUMOR CELLS TO A THERAPEUTIC AGENT AND TREATING A PATIENT ACCORDING TO THE PREDICTED RESPONSE” (Merrimack Pharmaceuticals, Inc., priority 2008, published 2017).

Tests used:
ErbB2 = ErbB2 (Homo sapiens, UniProt P04626); conditions: cited from earlier work
BT474-M3 xenograft = experiment: Xenograft tumor model treated with H3×B1D2, BT474-M3; type: in vivo, mouse; conditions: 600 μg/injection every 3 days, negative RGR = tumor regression
Description: (§1) To characterize the in vivo response of tumors to H3×B1D2 treatment, a panel of tumor cell lines was tested in a xenograft tumor model such as described in Example 1. In the xenograft tumor models, mice (nu/nu mice: 4-5 week old female mice, athymic, nude, outbred background; Albino; purchased from Charles River Labs, Wilmington, Mass.) are implanted in the flank with 5×10^6-2×10^7 cells/mouse (depending on cell line) in […] subcutaneous injection. Mice are monitored for initial tumor growth. Tumors are allowed to grow for several days until the mean tumor volume is approximately 150-200 mm^3. The tumor volume is calculated as V=(π/6 (L×W^2). The mice are treated with the H3×B1D2 antibody at a dosage of 600 μg/injection every 3 days (q3d). Control mice are treated with phosphate buffered saline (PBS) or with wild-type HSA (human serum albumin). Tumor volume is measured for 40-80 days.
(§2) The control and treatment data from the in vivo xenograft experiments was fitted to exponential growth curves, using the following formula: […]
(§3) wherein V is the tumor volume, Vo is the tumor volume at time zero, k is the exponential growth rate and t is the time. The potency of H3×B1D2 in inhibiting tumor growth was represented as the ratio of treatment and control exponential growth rates for each cell line tested. This ratio was denoted “relative growth rate” (RGR) and is represented as: […]

IGROV1 xenograft = experiment: Xenograft tumor model treated with H3×B1D2, IGROV1; type: in vivo, mouse; conditions: 600 μg/injection every 3 days, RGR of 1 = no effect
Description: as §1, §2, §3

LS180 xenograft = experiment: Xenograft tumor model treated with H3×B1D2, LS180; type: in vivo, mouse; conditions: 600 μg/injection every 3 days, RGR of 1 = no effect
Description: as §1, §2, §3

[1] = test system: pErbB3 and pAKT in OVCAR8-HER2 cells; experiment: Inhibition of pErbB3 and pAKT by H3×B1D2 in OVCAR8-HER2 cells; type: cell-based; conditions: OVCAR8-HER2 (higher ErbB2 expression) compared to OVCAR8
Description: (§4) For stimulation of the cells, the cells are seeded in duplicate wells with 1000 μl complete media at 150,000 cells per well in 12 well tissue culture plates (for 96 half well ELISA) or in duplicate plate of 100 μl complete media at 20,000 cells per well in 96 well tissue culture plates (for 384 well ELISA). These cells are incubated overnight in a humidified atmosphere of 5% CO2, 95% air and 37 degrees Celsius. Cells are then switched to serum free media: RPMI-1640 media (Gibco) supplemented with, 2 mM L-glutamine (Gibco) and units/mL Pen-Strep (Gibco). Starved cells are incubated in a humidified atmosphere of 5% CO2, 95% air and 37 degrees Celsius for 20-24 hours prior to stimulation. For dose-time matrix studies, cells are stimulated with ligand (HRG) at 0, 1, 2, 3, 4, 5, 7, 10, 20, 30, 60 and 120 minutes. […]
(§5) Levels of protein phosphorylation in the stimulated cells are measured by ELISA. ErbB1, ErbB2, and ErbB3 are measured using R&D Systems Duoset IC kits (ErbB1 DYC1095-E, ErbB2 DYC1768-E, ErbB3 DYC1769-E). […] All ELISAs are visualized with SuperSignal ELISA Pico Chemiluminescent Substrate (Pierce, Catalog #37069) and luminescent signal is measured using a luminometer. […]

[2] = test system: pErbB3 and pAKT signaling in different cell lines; experiment: Inhibition of HRG-induced pErbB3 and pAKT signaling by H3×B1D2, different cell lines; type: cell-based; conditions: across different cell lines; 5 nM HRG stimulation, ten-minute lysis
Description: as §4, §5

[3] = test system: pErbB3 and pAKT in ADRr cells; experiment: Inhibition of pErbB3 and pAKT by H3×B1D2 in ADRr cells; type: cell-based; conditions: ADRr cells (low ErbB2), computational model and experimental data
Description: as §4, §5

Compound | Lapatinib on-rate for binding to ErbB2 or 2-3 dimers before unit conversion (ErbB2) | relative growth rate (RGR = kH3×B1D2/kcontrol) (BT474-M3 xenograft) | relative growth rate (RGR = kH3×B1D2/kcontrol) (IGROV1 xenograft) | relative growth rate (RGR = kH3×B1D2/kcontrol) (LS180 xenograft) | inhibition percentage of pErbB3 and pAKT [1] | IC50 of inhibition of pErbB3 and pAKT signaling [2] | percentage of inhibition of pErbB3 and pAKT [3]
CS(=O)(=O)CCNCc1ccc(-c2ccc3ncnc(Nc4ccc(OCc5cccc(F)c5)c(Cl)c4)c3c2)o1 [lapatinib] | Unit conversion calculated as 2.95e3 M^−1s^−1/ | – | – | – | – | – | –
H3×B1D2: bispecific antibody, anti-ErbB3 single chain antibody H3 linked to anti-ErbB2 single chain antibody B1D2, SEQ ID NO: 41 | – | negative | greater than 1 | greater than 1 | greater inhibition percentage | did not greatly change | poor percentage of inhibition
